Measurements published in US20250369975A1, “METHOD FOR DETECTING TRANSTHYRETIN TETRAMER, AND METHOD FOR EVALUATING STABILITY” (SYSMEX CORPORATION, priority 2024, published 2025).
Like-named read-outs stand apart in the source and are kept apart here.

Tests used:
Type in all cases: binding
[1] = tested on: TTR tetramer (recombinant human transthyretin WT, T119M, V30M); settings: probe solution 0.3 μM immobilized on solid phase; recombinant TTR 100 ng/mL; FIG. 16A-B
[2] = tested on: TTR tetramer (recombinant human transthyretin WT, T119M, V30M); settings: probe solution 0.2 μM mixed with sample; FIG. 18A-B
[3] = biological target: T1, TTR tetramer in blood sample (serum, plasma) (Homo sapiens, UniProt P02766); test: Example 2: same format, serially diluted serum and plasma samples; settings: probe immobilized on solid phase
T1 construct: serially diluting commercially available serum (ProMedex Corporation, 12011378); tissue ProMedex Corporation (serum); host or cells: serum and plasma mix
Experimental: (§1) (1.2) Blood sample Six serum samples were prepared by serially diluting commercially available serum (ProMedex Corporation, 12011378) with 1% BSA/0.5% casein/PBS. Also six plasma samples were prepared by serially diluting a commercially available plasma mix with 1% BSA/0.5% casein/PBS.
The sample containing the recombinant TTR and the blood sample were the same as in Example 1. Probes C5 and C6 were diluted with 1% BSA/0.5% casein/PBS, to prepare a probe solution (0.3 μM). An ALP-labeled polyclonal anti-TTR antibody is used as the labeled antibody capable of binding to the TTR monomer. The labeled antibody was prepared by labeling a polyclonal rabbit anti-human prealbumin antibody (Agilent, A0002) with ALP by a usual method. […]
To each well of the plate, 300 μL of a blocking solution (1% BSA/0.5% casein/PBS) was added, followed by incubation for 1 hour at room temperature. […] 100 μL of a substrate solution of ALP was added to each well, and after 15 minutes, a chemiluminescence signal was measured with a plate reader. The samples were measured twice, and an average value of the two measured values was acquired. Results of measurement of the sample that contains the recombinant TTR are illustrated in FIGS. 16A and B. Measured results of the blood samples are illustrated in FIGS. 17A to D.

[4] = tested on: TTR tetramer (recombinant human transthyretin WT, T119M, V30M); settings: probe solution 10 μM; recombinant TTR 100 ng/mL; FIG. 14A-D
[5] = biological target: T2, TTR tetramer in plasma sample (Homo sapiens, UniProt P02766); test: Example 3: same format, serially diluted plasma samples; settings: probe solution 0.2 μM, FIG. 19B
T2 construct: serially diluting commercially available serum (ProMedex Corporation, 12011378); tissue ProMedex Corporation (serum); host or cells: serum and plasma mix
Experimental: as §1
The sample containing the recombinant TTR and the plasma sample were the same as in Example 1. Probes C5 and C6 were diluted with 1% BSA/0.5% casein/PBS, to prepare a probe solution (0.2 μM). The same ALP-labeled polyclonal anti-TTR antibody as in Example 2 was diluted 3200 times with 1% BSA/0.1% goat IgG/0.01% mouse IgG/0.005% scavenger ALP/PBS, to prepare a labeled antibody solution. The substrate solution and solid phase of ALP were the same as those in Example 2.
150 μL of each sample and 150 μL of the probe solution were mixed, and incubated at room temperature for 1 hour. As a control (blank), instead of the sample, 150 μL of 1% BSA/0.5% casein/PBS and 150 μL of the probe solution were mixed, and incubated in the same manner. […] 100 μL of a substrate solution of ALP was added to each well, and after 15 minutes, a chemiluminescence signal was measured with a plate reader. The samples were measured twice, and an average value of the two measured values was acquired. […]

[6] = biological target: T3, TTR tetramer (wild-type recombinant human transthyretin) (Homo sapiens, UniProt P02766); test: Example 5: HISCL-5000 automated immunoassay, tagged probe, streptavidin magnetic particle, ALP-labeled monoclonal anti-TTR antibody; settings: R1 reagent 0.3 μM probe; WT TTR 10 and 100 μg/mL; FIG. 21B
T3 construct: purchased AlexoTech T-500-10
Experimental: A sample containing wild-type (WT) recombinant TTR at respective concentrations of 10 μg/mL and 100 μg/mL was prepared by diluting transthyretin (wild-type) human, recombinant (AlexoTech, T-500-10) with 1% BSA/0.5% casein/PBS.
(2.1) R1 reagent As R1 buffer, a […] buffer (pH 8.0±0.05) containing 1% BSA, 0.15 g/L mouse IgG, 0.1% sodium azide, […], 0.1% Tween® 20 and 20 mg/mL alkaline phosphatase (AP) mutein was prepared. Probe C5 was diluted with R1 buffer, to prepare R1 reagent (0.1 μM) containing probe C5. Probe C6 was also diluted with R1 buffer, to prepare R1 reagent (0.3 μM) that contains probe C6.
As R3 buffer, a 0.1 mol/L HEPES buffer (pH 8.0±0.05) containing 1% BSA, 0.15 g/L murine IgG, 0.1% sodium azide, 0.15 mol/L NaCl, 0.1% Tween20.20 mg/mL AP mutein, 1.0 mmol/L MgCl, and 0.1 mmol/L ZnCl of 2 was prepared. An ALP-labeled monoclonal anti-TTR antibody was used as the labeled antibody capable of binding to the TTR monomer. […]
50 μL of each R1 reagent was added to the cuvette, to which 30 μL of the sample was then added, followed by incubation for 2.5 minutes. […] Five minutes later, the chemiluminescence signal was measured with HISCL-5000. As a control (blank), the sample was similarly measured with use of 30 μL of 1% BSA/0.5% casein/PBS instead of the sample. […]

O=C(CCCCC1SCC2NC(=O)NC21)NCCOCCOCCOCCOCCOCCOCCOCCOCCOCCOCCOCCOCCC(=O)Nc1ccc(/C=C/c2cc(Br)c(O)c(Br)c2)cc1 (stereo not shown) [Probe C6, Biotin-PEG12-Stilbene Derivative]
chemiluminescence signal measured values of WT, T119M and V30M samples versus blank [1]: a result similar to that of FIG. 16 A
chemiluminescence signal measured values of WT, T119M and V30M samples versus blank [2]: a result similar to that of FIG. 18 A
signal measured value of the plasma sample versus dilution factor ([3]; serially diluted plasma, FIG. 17D): similarly increased according to the dilution factor
signal measured value of the serum sample versus dilution factor ([3]; serially diluted serum, FIG. 17C): increased according to the dilution factor
chemiluminescence signal measured values of WT, T119M and V30M samples versus blank [4]: results similar to those of FIG. 14 A
signal measured value of the plasma sample versus dilution factor [5]: increased according to the dilution factor
signal measured value versus level of recombinant TTR in the sample [6]: increased corresponding to the level of the recombinant TTR in the sample
